Experiment [1] concerns the target T1, propionyl-CoA carboxylase subunit beta (PCCB) (Sus scrofa, UniProt P79384).
T1 construct: a porcine liver proteome was run over an ATP-Sepharose™ column; from tissue; host or cells: porcine liver
T1 sequence (P79384 29-539): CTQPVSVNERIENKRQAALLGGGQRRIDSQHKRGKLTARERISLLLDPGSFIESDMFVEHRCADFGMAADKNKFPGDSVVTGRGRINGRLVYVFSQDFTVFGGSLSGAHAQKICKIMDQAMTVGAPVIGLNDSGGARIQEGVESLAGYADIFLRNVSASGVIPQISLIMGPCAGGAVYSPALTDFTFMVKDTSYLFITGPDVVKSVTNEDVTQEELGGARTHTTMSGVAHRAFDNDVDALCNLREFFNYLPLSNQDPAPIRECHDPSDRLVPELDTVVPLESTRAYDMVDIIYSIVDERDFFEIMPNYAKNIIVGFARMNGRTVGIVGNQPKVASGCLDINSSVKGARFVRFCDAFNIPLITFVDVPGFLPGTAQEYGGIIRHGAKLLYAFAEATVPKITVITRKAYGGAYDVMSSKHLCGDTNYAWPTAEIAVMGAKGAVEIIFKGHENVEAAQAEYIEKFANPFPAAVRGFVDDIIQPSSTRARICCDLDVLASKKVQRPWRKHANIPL
T1 sequence (P0DTA4 53-730 partner): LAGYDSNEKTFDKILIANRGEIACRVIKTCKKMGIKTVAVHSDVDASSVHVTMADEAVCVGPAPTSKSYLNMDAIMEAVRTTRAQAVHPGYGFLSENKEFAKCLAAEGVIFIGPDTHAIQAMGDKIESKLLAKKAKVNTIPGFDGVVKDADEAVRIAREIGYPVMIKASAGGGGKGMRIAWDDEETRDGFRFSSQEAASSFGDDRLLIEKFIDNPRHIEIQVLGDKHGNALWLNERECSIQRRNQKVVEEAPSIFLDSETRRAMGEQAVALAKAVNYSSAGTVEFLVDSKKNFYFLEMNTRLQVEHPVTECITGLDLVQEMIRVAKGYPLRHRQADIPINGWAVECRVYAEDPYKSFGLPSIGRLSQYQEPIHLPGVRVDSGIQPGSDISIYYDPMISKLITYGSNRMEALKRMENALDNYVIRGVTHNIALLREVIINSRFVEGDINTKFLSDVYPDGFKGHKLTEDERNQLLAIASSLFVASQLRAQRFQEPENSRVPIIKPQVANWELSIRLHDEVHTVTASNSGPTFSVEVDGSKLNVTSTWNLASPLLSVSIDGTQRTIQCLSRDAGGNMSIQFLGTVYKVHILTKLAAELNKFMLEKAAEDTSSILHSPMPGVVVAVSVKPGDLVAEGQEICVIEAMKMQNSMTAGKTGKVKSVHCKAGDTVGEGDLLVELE
Nature of the experiment: Elution of PCCB from ATP-Sepharose column loaded with porcine liver proteome, IC50 estimate. Type of experiment: binding. Particulars: estimated from percent of protein eluted from ATP-Sepharose column, read-out: Approximate IC50 for PCCB. As to the method: Similar experiments were carried out to compare the IC50 values for PYC, PCCA, and PCCB. In these trials, a porcine liver proteome was run over an ATP-Sepharose™ column to bind all purine-binding proteins. The ATP-Sepharose™ column was washed several times, and then eluted with the compound of Formula III at concentrations of 1 μM, 5 μM, 10 μM, 50 μM, 100 μM, and 500 μM to identify proteins that bound to this compound.
Gels were stained with a fluorescent stain such as sypro ruby (a highly sensitive fluorescent protein stain that can readily detect less than 1 fmol of total protein, i.e., less than 0.04 ng for a 40 kDa protein). The gels were imaged using a standard flat bed gel imager and the amount of protein estimated by densiometry. The percent of protein eluted from the column at each concentration was determined and IC50 values were calculated from these estimates. Where necessary, the eluted proteins were cut out of the gel, and identified using mass spectral techniques.
The values obtained were then compared to those for DHFR.

The target of another experiment is T2, DHFR (Homo sapiens, UniProt P00374).
T2 sequence (P00374 1-187): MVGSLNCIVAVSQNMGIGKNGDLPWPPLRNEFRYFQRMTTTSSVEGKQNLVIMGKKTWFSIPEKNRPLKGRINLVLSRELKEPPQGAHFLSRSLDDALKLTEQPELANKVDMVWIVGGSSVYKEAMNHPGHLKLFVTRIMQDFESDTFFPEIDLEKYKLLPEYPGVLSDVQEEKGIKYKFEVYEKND
The experiment can be described thus: DHFR enzymatic assay. Type of experiment: biochemical. Particulars: determined by enzymatic assay.

The next experiment has as its target B-Raf (Homo sapiens, UniProt P15056). The experiment can be described thus: Elution of B-Raf from ATP-Sepharose column by compound (Proteome Mining), IC50 estimate. Type of experiment: binding. The conditions noted are these: estimated from percent of protein eluted from ATP-Sepharose column, gel densitometry; read-out: Approximate IC50 for B-Raf. The method, then:
A proteome containing a known quantity of Her2, EGFR, and B-Raf was run over an ATP-Sepharose™ column in order to bind all purine-binding proteins. See, WO 00/63694 and U.S. Provisional Application No. 60/453,697 filed Jan. 22, 2003, each of which is incorporated by reference in its entirety. The ATP-Sepharose™ was washed several times, and then eluted with the compound of Formula III. The experiment was run in duplicate at concentrations of 20 μM, 100 μM, and 500 μM of the compound of Formula III. The eluted fractions were run on a 1-dimensional SDS polyacrylamide gel. Gels were stained with a fluorescent stain such as sypro ruby (a highly sensitive fluorescent protein stain that can readily detect less than 1 fmol of total protein, i.e., less than 0.04 ng for a 40 kDa protein). The gels were imaged using a standard flat bed gel imager and the amount of protein estimated by densiometry. The percent of protein eluted from the column at each concentration was determined and IC50 values were calculated from these estimates. Where necessary, the eluted proteins were cut out of the gel, and identified using mass spectral techniques.
These steps were repeated with each of the compounds of Formulas IV-X, MTX, and the c series derivative.

Sequence of B-Raf (P15056 whole entry, species assumed): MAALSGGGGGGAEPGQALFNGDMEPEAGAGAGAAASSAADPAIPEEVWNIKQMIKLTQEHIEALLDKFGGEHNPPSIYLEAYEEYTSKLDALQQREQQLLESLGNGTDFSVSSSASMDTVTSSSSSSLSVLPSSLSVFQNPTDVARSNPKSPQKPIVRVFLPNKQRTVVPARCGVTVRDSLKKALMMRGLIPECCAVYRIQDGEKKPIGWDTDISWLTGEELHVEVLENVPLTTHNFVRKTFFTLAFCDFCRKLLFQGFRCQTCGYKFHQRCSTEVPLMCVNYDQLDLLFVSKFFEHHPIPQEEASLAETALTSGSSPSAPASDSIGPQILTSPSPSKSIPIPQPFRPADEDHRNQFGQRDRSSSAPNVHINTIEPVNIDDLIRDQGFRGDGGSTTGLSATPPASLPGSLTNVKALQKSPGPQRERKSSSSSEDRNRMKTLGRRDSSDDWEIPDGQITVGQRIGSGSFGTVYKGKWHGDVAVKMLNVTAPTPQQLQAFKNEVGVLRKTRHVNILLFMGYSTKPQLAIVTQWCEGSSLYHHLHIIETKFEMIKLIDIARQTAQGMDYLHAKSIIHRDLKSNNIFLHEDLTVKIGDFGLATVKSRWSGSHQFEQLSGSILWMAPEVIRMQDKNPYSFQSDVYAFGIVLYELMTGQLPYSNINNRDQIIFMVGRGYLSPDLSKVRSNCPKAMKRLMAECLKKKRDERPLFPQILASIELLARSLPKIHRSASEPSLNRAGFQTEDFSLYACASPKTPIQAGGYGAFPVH

A word on the IC50: it is the concentration needed to halve the response being measured. As for `C#CCN(Cc1cnc2nc(N)nc(N)c2n1)c1ccc(C(=O)NC(CCC(=O)O)C(=O)O)cc1OC(F)(F)F` (stereo not shown) [Formula IX], the IC50 in experiment [1] was 14 µM; against DHFR, 118 nM.

For `C#CCN(Cc1cnc2nc(N)nc(N)c2n1)c1ccc(C(=O)NC(CCC(=O)O)C(=O)O)cc1C` (stereo not shown) [Formula III, 2-{4-[(2,4-diamino-pteridin-6-ylmethyl)-prop-2-ynyl-amino]-3-methyl-benzoylamino}-pentanedioic acid], the values for the IC50 (at B-Raf; in experiment [1]; against DHFR) were 5 µM, 3.5 µM and 10 nM, respectively.

Regarding `Cc1cc(C(=O)NC(CCC(=O)O)C(=O)O)ccc1N(Cc1ccoc1)Cc1cnc2nc(N)nc(N)c2n1` (stereo not shown) [Formula VII], the concentration for half-maximal inhibition (IC50) in experiment [1] is 3 µM; against DHFR, 15 nM.

In the case of `C#CCN(Cc1cnc2nc(N)nc(N)c2n1)c1ccc(C(=O)NC(CCC(=O)O)C(=O)O)cc1OC` (stereo not shown) [Formula VIII], the IC50 was 5 µM on B-Raf, 3.5 µM in experiment [1] and 15 nM against DHFR.

The record behind these values is US20060035901A1, “Methotrexate derivatives useful for treating cancer and arthritis” (Serenex, Inc., priority 2004, published 2006).
